From paper PMC8401404 (Molecules, 2021)
Where a name gives a salt, the structure may show the parent alone. Read-outs that look alike come from different tables or passages of the source.

How the values were obtained:
[1] = system: poly dA-poly dT (DNA, polymer) A/T; assay: UV thermal melting at 260 nm; conditions: Na+ (sodium cacodylate, I = 0.05 M), pH 7.0, r = [compound]/[polynucleotide phosphate] = 0.3, error ±0.5, per base
[2] = system: poly(dAdT)2 (DNA, polymer) AT; assay: UV thermal melting at 260 nm; conditions: Na+ (sodium cacodylate, I = 0.05 M), pH 7.0, r = [compound]/[polynucleotide phosphate] = 0.3, error ±0.5, per base
[3] = system: poly(dAdT)2 (DNA, polymer) AT; assay: CD titration; conditions: Na+ (sodium cacodylate, I = 0.05 M), pH 7.0, 25 °C, polynucleotide 3.0 × 10^-5 M
A549 [4] = assay: BrdU proliferation assay, 2D cell culture; assay type: cell-based, human; conditions: A549, 2D, BrdU, n = 2, read-out: Proliferation Assay IC50 ± SD
Experimental: (§1) MTS assay gives us information about the number of living cells, in this case, metabolically active cells, whereas the BrdU proliferation assay gives a measure of the cell population in active division phase. Both assays were performed in 2D and 3D assay formats. For the 2D cell assay format, we used classic two-dimensional in vitro assays and as a 3D assay we used a hanging drop proliferation cell assay as previously described. We explored the activity of compounds on three human lung cancer cell lines, A549, HCC827 and NCI-H358. The compound activity was also tested on human lung fibroblast cell line MRC-5. A two-dimensional in vitro viability assay was performed on the MRC-5 cell line to see if tested compounds are cytotoxic on normal cell lines in low concentrations. […] 7.1.
(§2) Test compounds were synthesized by a research group at the Department of Organic Chemistry, Faculty of Chemical Engineering and Technology, University of Zagreb. […] Compounds were diluted 1:3. We transferred 500 nL (for 2D cell culture) or 400 nL (for 3D cell culture) of the compound from a mother plate to test plate by using Mosquito (TTP labtech). DMSO percentage in test concentrations was 0.5–1.0%. Starting concentration of the test compounds and standard compound doxorubicin was 50 µM (2D cell culture) or 100 µM (3D cell culture).
(§3) Cells were grown in 96-well cell star polystyrene plates. We seeded 10,000 cells/well in wells 4 h prior to the treatment with different compounds concentrations and incubated for 72 h. A cell viability assay was performed according to the manufacturer’s instructions, using CellTiter 96 aqueous solution, MTS kit (Promega, Madison, WI, USA). After 0.5–2 h of cell incubation with MTS in 2D cell culture, the plates were read using PE EnVision absorbance at 490 nm.
(§4) Proliferation assay was performed using Cell Proliferation ELISA, BrdU (Sigma, St. Louis, MO, USA). Briefly, 48 h hours after compound addition, 10 µM of BrdU was added to each well and incubated for the following 24 h. After incubation, a single cell suspension was made for 3D cell culture in the new 96-well plate. Plates were centrifuged and supernatants were removed from each plate (for 2D and 3D cell culture) followed by 60 min incubation at 60 °C. The rest of the proliferation assay was performed according to the manufacturer’s instructions.
(§5) Calculation of IC50 data, curves and QC analysis was performed by using Excel tools and GraphPadPrism software (La Jolla, CA, USA), v. […] QC criteria parameters (Z’, S:B, R2, HillSlope) were checked for every IC50 curve.

NCI-H358 [5] = assay: BrdU proliferation assay, 2D cell culture; assay type: cell-based, human; conditions: NCI-H358, 2D, n = 2, read-out: Proliferation Assay IC50 ± SD
Experimental: as §1, §2, §3, §4, §5

HCC827 [6] = assay: BrdU proliferation assay, 2D cell culture; assay type: cell-based, human; conditions: HCC827, 2D, BrdU, n = 2, read-out: Proliferation Assay IC50 ± SD
Experimental: as §1, §2, §3, §4, §5

A549 [7] = assay: Cytotoxicity (viability) assay, 3D hanging drop cell culture; conditions: read-out: Cytotoxicity Assay IC50 ± SD, A549 3D
Experimental: as §1, §2
(§6) Cells were grown in 96-well Perfecta 3D hanging drop plates 5000 cell/well for 4 days until spheres were formed (and checked under the microscope). After sphere formation cells were treated with compounds followed by 72 h incubation. Cell viability assay was performed according to the manufacturer’s instructions, using CellTiter GLO 3D for 3D cell culture (Promega); cell incubation was 5 min on the shaker followed by 25 min incubation in the dark. Plates were read using PE EnVision luminescence.
as §5

NCI-H358 [8] = assay: as above; conditions: read-out: Cytotoxicity Assay IC50 ± SD, NCI-H358 3D
Experimental: as §1, §2, §6, §5

HCC827 [9] = assay: as above; conditions: read-out: Cytotoxicity Assay IC50 ± SD, HCC827 3D
Experimental: as §1, §2, §6, §5

calf thymus DNA (ctDNA) = assay: Fluorimetric titrations with ctDNA; conditions: fluorescence titrations, Scatchard equation, pH 7.0, sodium cacodylate buffer I = 0.05 mol dm-3
Experimental: The UV/vis spectra were recorded on a Varian Cary 100 Bio spectrophotometer, CD spectra on JASCO J815 spectrophotometer and fluorescence spectra on a Varian Cary Eclipse spectrophotometer.
Spectrophotometric titrations were performed at pH = 7 (I = 0.05 mol dm^−3, sodium cacodylate buffer) by adding portions of polynucleotide solution into the solution of the studied compound for fluorimetric experiments and CD experiments were performed by adding portions of the compound stock solution into the solution of a polynucleotide. In fluorimetric experiments excitation wavelengths of λexc = 350, 370 and 390 nm were used to avoid the inner filter effect caused due by increasing absorbance of the polynucleotide (Figures S3 and S4). Emission was collected in the range λem = 400–600 nm (SI).
aTitration data were processed using Scatchard equation, correlation coefficients were >0.97-
0.99 for all calculated Ks

S. aureus ATCC 29213 = assay: Broth microdilution testing (CLSI); assay type: cell-based, Staphylococcus aureus; conditions: 16–24h at 37 °C, read-out: MIC S. aureus ATCC 29213
Experimental: (§7) Broth microdilution testing was performed according to CLSI (Clinical Laboratory Standards Institute) guidelines. MIC (minimal inhibitory concentration) value was defined as the last tested concentration of compound at which there is no visible growth of bacteria. […] Clinical and Laboratory Standards Institute (CLSI) guidelines.

E. coli ATCC 25922 = assay: Broth microdilution testing (CLSI); assay type: cell-based, Escherichia coli; conditions: broth microdilution, 16–24h at 37 °C, read-out: MIC E. coli ATCC 25922
Experimental: as §7

A549 [10] = assay: MTS cytotoxicity assay, 2D cell culture; conditions: read-out: Cytotoxicity Assay IC50 ± SD, A549 2D, 72 h, MTS, n = 2
Experimental: as §1, §2, §3, §5

NCI-H358 [11] = assay: MTS cytotoxicity assay, 2D cell culture; conditions: read-out: Cytotoxicity Assay IC50 ± SD, NCI-H358 2D
Experimental: as §1, §2, §3, §5

HCC827 [12] = assay: MTS cytotoxicity assay, 2D cell culture; conditions: read-out: Cytotoxicity Assay IC50 ± SD, HCC827 2D
Experimental: as §1, §2, §3, §5

[13] = Solubility in water (stock solutions)
poly dA-poly dT = assay: Thermal melting experiments; assay type: binding; conditions: r = 0.3, pH 7.0, sodium cacodylate buffer I = 0.05 mol dm^−3; error ±0.5 °C
Source text: (§8) The thermal stability of helices is usually affected by the non-covalent binding of small molecules to double-stranded nucleic acids. We determined the ΔTm value (the difference between the Tm value of free polynucleotide and a complex with a small molecule) for complexes of selected compounds with ctDNA and an alternating polynucleotide, poly(dAdT)2. […] Because of this, we determined ΔTm value with non-alternating AT-DNA, poly dA-poly dT as well.

poly(dAdT)2 = assay: Thermal melting experiments; assay type: binding; conditions: r = 0.3, pH 7.0, sodium cacodylate buffer I = 0.05 mol dm^−3; error ±0.5 °C
Source text: as §8

A549 [14] = assay: BrdU proliferation assay, 3D hanging drop cell culture; assay type: cell-based, human; conditions: A549, 3D, BrdU, n = 2, read-out: Proliferation Assay IC50 ± SD
Experimental: as §1, §2, §6, §4, §5

NCI-H358 [15] = assay: as above; assay type: cell-based, human; conditions: NCI-H358, 3D, n = 2, read-out: Proliferation Assay IC50 ± SD
Experimental: as §1, §2, §6, §4, §5

HCC827 [16] = assay: as above; assay type: cell-based, human; conditions: HCC827, 3D, BrdU, n = 2, read-out: Proliferation Assay IC50 ± SD
Experimental: as §1, §2, §6, §4, §5

[17] = MTS cytotoxicity assay, 2D cell culture, normal lung fibroblasts; conditions: human, MRC-5 normal lung fibroblasts, 2D culture
Experimental: as §1, §2, §3, §5

S. cerevisiae ATCC 7752 = assay: Broth microdilution testing (CLSI); assay type: cell-based, Saccharomyces cerevisiae; conditions: broth microdilution, 16–24h at 37 °C, read-out: MIC S. cerevisiae ATCC 7752
Experimental: as §7

ctDNA = assay: Thermal melting experiments; assay type: binding, calf; conditions: r = [compound]/[polynucleotide] = 0.3, pH 7.0, sodium cacodylate buffer I = 0.05 mol dm^−3; error ±0.5 °C
Source text: as §8

[18] = system: human lung fibroblast cell line MRC-5; assay: MTS cytotoxicity assay, 2D cell culture, normal lung fibroblasts; conditions: read-out: Cytotoxicity Assay IC50 ± SD; MRC-5 2D; MRC-5 normal lung fibroblasts, 2D, 72 h, MTS; n = 2
Experimental: as §1, §2, §3, §5

[19] = Staphylococcus aureus, ATCC29213, broth microdilution
[20] = Saccharomyces cerevisiae, ATCC7752

SMILES | IC50 (A549 [4]; Homo sapiens) | IC50 (NCI-H358 [5]; Homo sapiens) | IC50 (HCC827 [6]; Homo sapiens) | IC50 (A549 [7]; Homo sapiens, A549, 72 h) | IC50 (NCI-H358 [8]; Homo sapiens, NCI-H358, 72 h) | IC50 (HCC827 [9]; Homo sapiens, HCC827, 72 h) | Binding constants (logKs) with ctDNA (calf thymus DNA (ctDNA)) | MIC (S. aureus ATCC 29213; [19]) | MIC (E. coli ATCC 25922; Escherichia coli, ATCC25922) | IC50 (A549 [10]; Homo sapiens, A549, 72 h) | IC50 (NCI-H358 [11]; Homo sapiens, NCI-H358, 72 h) | IC50 (HCC827 [12]; Homo sapiens, HCC827, 72 h) | solubility [13] | ΔTm Poly dA-poly dT (poly dA-poly dT) | ΔTm poly (dAdT)2 (poly(dAdT)2) | IC50 (A549 [14]; Homo sapiens) | IC50 (NCI-H358 [15]; Homo sapiens) | IC50 (HCC827 [16]; Homo sapiens) | IC50 at 72 h [17] | MIC (S. cerevisiae ATCC 7752; [20]) | further results
CC(C)NC(=N)c1ccc2nc(-c3ccc(-c4ccc(Cl)cc4)o3)sc2c1 | – | – | – | – | – | – | – | – | – | – | – | – | – | – | – | – | – | – | – | – | ΔTm [1]: 4.3 °C; ΔTm [2]: 3.6 °C; binding [3]: yes
CC(C)NC(=N)c1ccc2nc(-c3ccc(-c4ccc([N+](=O)[O-])cc4)o3)sc2c1 [Compound 5, 2-[5-(4-Nitrophenyl)furan-2-yl]-6-N-isopropilamidinobenzothiazole hydrochloride] | 4.76 ± 1.03 µM | 3.56 ± 0.18 µM | 13.7 ± 3.13 µM | 26.4 ± 13.4 µM | 14.8 ± 0.57 µM | 43.6 ± 6.45 µM | 6.4 | 50 µM | > 100 µM | 8.76 ± 1.69 µM | 9.97 ± 0.59 µM | 19.3 ± 1.72 µM | 3000 µM | 5.5 °C | 4.8 °C | 65.9 ± 3.66 µM | 14.3 ± 0.84 µM | 14.7 ± 13.4 µM | 21.7 ± 0.51 µM | 12.5 µM | ΔTm ctDNA (ctDNA): 2.5 °C
CC(C)NC(=N)c1ccc2nc(-c3ccc(-c4ccc(Cl)cc4)o3)sc2c1 [Compound 8, 2-[5-(4-Chlorophenyl)furan-2-yl]-6-N-isopropilamidinobenzothiazole hydrochloride] | 8.78 ± 3.62 µM | 6.68 ± 0.15 µM | 13.5 ± 0.81 µM | 9.31 ± 0.78 µM | 16 ± 9.38 µM | 20.5 ± 8.63 µM | 6.3 | 12.5 µM | > 100 µM | 6.75 ± 0.19 µM | 6.48 ± 0.11 µM | 6.26 ± 0.33 µM | 3000 µM | 4.3 °C | 3.6 °C | 19.9 ± 2.19 µM | 11.3 ± 0.49 µM | 17.8 ± 4.24 µM | 9.88 ± 2.38 µM | 6.25 µM | IC50 (A549 [10]): 6.74 ± 0.19 µM; ΔTm ctDNA (ctDNA): 1.7 °C
Cl.Clc1ccc(-c2ccc(-c3nc4ccc(C5=NCCN5)cc4s3)o2)cc1 [Compound 9, 2-[5-(4-Chlorophenyl)furan-2-yl]-6-(4,5-Dihydro-1H-imidazol-2-yl)benzothiazole hydrochloride] | 9.97 ± 5.37 µM | 5.57 ± 0.81 µM | 8.69 ± 2.79 µM | 16.8 ± 2.61 µM | 15.49 ± 0.07 µM | 20 ± 7.92 µM | 6.1 | 25 µM | > 100 µM | 4.39 ± 0.79 µM | 4.48 ± 0.3 µM | 5.9 ± 0.58 µM | 1320 µM | 15.2 °C | 4.6 °C | 17 ± 3.53 µM | 6.39 ± 3.29 µM | 20.3 ± 13.9 µM | 6.65 ± 0.18 µM | 3.13 µM | ΔTm [1]: 15.2 °C; ΔTm [2]: 4.6 °C; melting point: 293 to 297 °C; binding [3]: yes; ΔTm ctDNA (ctDNA): 1.8 °C
N#CC(=Cc1ccc(-c2ccc([N+](=O)[O-])cc2)o1)c1nc2cc([N+](=O)[O-])ccc2[nH]1 [Compound 18, (E,Z)-2-(5(6)-Nitrobenzimidazol-2-yl)-3-[5-(4-nitrophenyl)furan-2-yl]acrylonitrile] | – | – | – | – | – | – | – | – | – | – | – | – | – | – | – | – | – | – | – | – | IC50 (A549 [4]): > 50 µM; IC50 (NCI-H358 [5]): > 50 µM; IC50 (HCC827 [6]): > 50 µM; IC50 (A549 [7]; A549, 3D hanging drop spheres, 72 h, n = 2): > 100 µM; IC50 (NCI-H358 [8]; NCI-H358, 3D hanging drop spheres, 72 h, n = 2): > 100 µM; IC50 (HCC827 [9]; HCC827, 3D hanging drop spheres, 72 h, n = 2): > 100 µM; MIC (S. aureus ATCC 29213; broth microdilution): >100 µM; MIC (E. coli ATCC 25922): >100 µM; IC50 (A549 [10]): > 50 µM; IC50 (NCI-H358 [11]; 72 h, MTS, n = 2): 3.5 ± 1.14 µM; IC50 (HCC827 [12]; 72 h, MTS, n = 2): > 50 µM; IC50 (A549 [14]): > 100 µM; IC50 (NCI-H358 [15]): > 100 µM; IC50 (HCC827 [16]): > 100 µM; IC50 [18]: > 50 µM; MIC (S. cerevisiae ATCC 7752): >100 µM
